Reference: paper PMC7041630 (Experimental neurology, 2018)

Assays:
[1] = test system: pT73-Rab10 in human PBMCs; assay: Ex vivo pT73-Rab10 western blot, human PBMCs; assay type: cell-based; conditions: 100 nM, two hours
[2] = Single-dose IV/PO pharmacokinetics in rats; assay type: in vivo, rat; conditions: for bioavailability: oral dosing, 1% methylcellulose vehicle
Drug properties = assay type: physicochemical
[3] = test system: pT73-Rab10 in mouse macrophages; assay: Ex vivo pT73-Rab10 western blot, mouse macrophages; assay type: cell-based; conditions: 100 nM, two hours
[4] = test system: pT73-Rab10 in human neutrophils; assay: Ex vivo pT73-Rab10 western blot, human neutrophils; assay type: cell-based; conditions: 100 nM, two hours
WT-LRRK2 = assay type: in vivo, rat; conditions: non-transgenic rats; for phospho-LRRK2 in total protein lysates from kidney: higher concentrations of inhibitor; for total LRRK2 protein in the brain: higher concentrations, three days; for total LRRK2 protein in the lung (normalized to HSC70): three days of drug treatment
LRRK2 = conditions: ref Fell et al., 2015, Henderson et al., West; cited from earlier work
[5] = Liver microsome stability assay; assay type: in vitro ADME, macaque; conditions: 2 μM compound, 0.5 mg mL−1 microsomes, with NADPH, one hour
[6] = In-diet dosing, plasma drug levels in rats; assay type: in vivo, rat; conditions: chow up to 1050 mg kg−1
[7] = molecular target: recombinant human WT-LRRK2 (Homo sapiens, UniProt Q5S007); assay: LanthaScreen LRRKtide phosphorylation assay, WT-LRRK2; assay type: biochemical; conditions: LanthaScreen at Km,app(ATP)
Sequence of recombinant human WT-LRRK2 (Q5S007 whole entry): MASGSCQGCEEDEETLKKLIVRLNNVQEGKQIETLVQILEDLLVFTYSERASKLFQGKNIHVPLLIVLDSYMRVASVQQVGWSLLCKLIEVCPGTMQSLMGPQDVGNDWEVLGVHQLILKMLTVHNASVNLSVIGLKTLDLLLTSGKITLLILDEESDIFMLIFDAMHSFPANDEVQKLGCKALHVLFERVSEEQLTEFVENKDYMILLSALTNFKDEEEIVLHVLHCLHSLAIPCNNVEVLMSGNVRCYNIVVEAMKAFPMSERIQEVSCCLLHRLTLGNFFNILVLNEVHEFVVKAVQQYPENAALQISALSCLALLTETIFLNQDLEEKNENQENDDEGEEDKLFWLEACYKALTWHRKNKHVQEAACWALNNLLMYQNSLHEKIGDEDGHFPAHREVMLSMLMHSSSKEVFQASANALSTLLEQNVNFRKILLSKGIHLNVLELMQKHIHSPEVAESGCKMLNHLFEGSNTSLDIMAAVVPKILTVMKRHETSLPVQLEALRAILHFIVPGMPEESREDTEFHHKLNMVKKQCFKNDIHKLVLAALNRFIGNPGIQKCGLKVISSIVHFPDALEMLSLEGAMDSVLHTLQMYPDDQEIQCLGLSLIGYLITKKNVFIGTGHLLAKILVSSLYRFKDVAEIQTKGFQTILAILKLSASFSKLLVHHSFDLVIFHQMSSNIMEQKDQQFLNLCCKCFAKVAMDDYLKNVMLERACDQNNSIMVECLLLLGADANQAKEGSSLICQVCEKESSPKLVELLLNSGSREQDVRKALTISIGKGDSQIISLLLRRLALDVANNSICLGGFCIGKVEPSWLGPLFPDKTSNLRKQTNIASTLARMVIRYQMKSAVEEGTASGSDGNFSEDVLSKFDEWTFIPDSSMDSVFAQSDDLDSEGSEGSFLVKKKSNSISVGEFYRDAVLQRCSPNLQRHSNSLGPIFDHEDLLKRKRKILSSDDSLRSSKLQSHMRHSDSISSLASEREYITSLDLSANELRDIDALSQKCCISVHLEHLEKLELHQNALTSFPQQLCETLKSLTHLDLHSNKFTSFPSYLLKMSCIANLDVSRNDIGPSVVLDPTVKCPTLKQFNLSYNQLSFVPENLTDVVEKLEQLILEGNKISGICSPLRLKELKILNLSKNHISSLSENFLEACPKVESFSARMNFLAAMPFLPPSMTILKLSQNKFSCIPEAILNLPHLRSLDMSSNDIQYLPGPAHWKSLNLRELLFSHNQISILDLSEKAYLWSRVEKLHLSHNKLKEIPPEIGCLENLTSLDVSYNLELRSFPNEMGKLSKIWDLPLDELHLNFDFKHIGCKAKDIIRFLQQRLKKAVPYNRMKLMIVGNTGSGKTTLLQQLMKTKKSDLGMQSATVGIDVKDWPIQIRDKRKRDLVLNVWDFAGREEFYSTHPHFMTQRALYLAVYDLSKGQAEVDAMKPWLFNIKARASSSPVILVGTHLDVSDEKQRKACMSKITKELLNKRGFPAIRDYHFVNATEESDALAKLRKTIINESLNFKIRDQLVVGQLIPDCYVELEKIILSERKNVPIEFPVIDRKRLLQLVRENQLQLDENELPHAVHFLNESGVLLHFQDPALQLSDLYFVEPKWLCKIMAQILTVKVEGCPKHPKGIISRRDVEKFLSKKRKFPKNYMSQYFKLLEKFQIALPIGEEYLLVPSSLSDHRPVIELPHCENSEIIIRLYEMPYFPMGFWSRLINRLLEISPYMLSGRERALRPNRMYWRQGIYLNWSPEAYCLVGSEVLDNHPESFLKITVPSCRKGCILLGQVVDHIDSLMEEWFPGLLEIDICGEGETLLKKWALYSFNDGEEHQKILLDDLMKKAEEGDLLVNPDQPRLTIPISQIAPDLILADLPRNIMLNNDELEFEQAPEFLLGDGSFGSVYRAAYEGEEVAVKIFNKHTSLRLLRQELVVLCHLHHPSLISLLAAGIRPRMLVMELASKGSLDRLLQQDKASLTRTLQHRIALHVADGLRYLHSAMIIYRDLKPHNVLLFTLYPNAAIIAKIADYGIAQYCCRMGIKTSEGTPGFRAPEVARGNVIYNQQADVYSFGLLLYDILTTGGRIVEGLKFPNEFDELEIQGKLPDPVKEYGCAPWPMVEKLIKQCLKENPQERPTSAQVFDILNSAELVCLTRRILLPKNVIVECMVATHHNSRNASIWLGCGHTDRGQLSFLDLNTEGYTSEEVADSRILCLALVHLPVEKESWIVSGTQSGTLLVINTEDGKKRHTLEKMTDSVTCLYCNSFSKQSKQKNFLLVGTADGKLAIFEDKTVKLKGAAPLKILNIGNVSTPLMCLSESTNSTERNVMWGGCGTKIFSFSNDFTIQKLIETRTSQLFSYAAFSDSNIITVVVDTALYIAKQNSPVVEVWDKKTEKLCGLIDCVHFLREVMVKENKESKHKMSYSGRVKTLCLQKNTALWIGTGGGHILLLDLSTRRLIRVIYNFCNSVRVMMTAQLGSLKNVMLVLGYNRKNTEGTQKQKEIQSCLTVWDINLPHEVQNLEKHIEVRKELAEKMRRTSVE

| SMILES | pRab10 signal [1] | brain penetrant [2] | bioavailability [2] | aqueous solubility (Drug properties; compared to PF-360) | pT73-Rab10 signal [3] | pT73-Rab10 signal [4] | phospho-LRRK2 in total protein lysates from kidney (WT-LRRK2) | total LRRK2 protein in the brain (WT-LRRK2) | total LRRK2 protein in the lung (normalized to HSC70) (WT-LRRK2) | binding in vitro (LRRK2) | microsomal stability, compound remaining [5] | brain-to-plasma ratio (total compound) [2] | correlation of plasma to brain concentrations (r) ([2]; total compound) | lipophilicity (Drug properties; compared to MLi2) | highest plasma concentration achieved with in-diet dosing [6] [nM] | more potent in blocking LRRKtide phosphorylation than autophosphorylation [7] |
| --- | --- | --- | --- | --- | --- | --- | --- | --- | --- | --- | --- | --- | --- | --- | --- | --- |
| C[C@@H]1CN(c2cc(-c3n[nH]c4ccc(OC5(C)CC5)cc34)ncn2)C[C@H](C)O1 [MLi2] | could not observe a reliable reduction in pRab10 | ~ 75% | ~ 40% | poor | virtually eliminated pT73-Rab10 signal | virtually eliminated pT73-Rab10 signal | essentially no phospho-LRRK2 remaining | did not show these trends | did not reduce | low to sub-nanomolar | no significant concentrations of compound left after one-hour incubation |  |  |  |  |  |
| Cn1cc(-c2c[nH]c3ncnc(N4CCOCC4)c23)cc1C#N [PF-360] |  |  | ~ 40% |  |  |  | essentially no phospho-LRRK2 remaining | reduce total LRRK2 protein in the brain nearly to the same extent as reducing the amount of phosphorylated LRRK2 protein | did not reduce | low to sub-nanomolar | no significant concentrations of compound left after one-hour incubation | 0.48±0.03 | 0.89 | lower lipophilicity | ≤ 100 | ~ 1 order of magnitude |
